# Measurements from patent US9688710B2, “Inhibitors of sodium glucose cotransporter 1” (LEXICON PHARMACEUTICALS, INC., priority 2012, dated 2017).
# How the values were obtained:
# [1] = biological target: Human sodium/glucose co-transporter type 1 (SGLT1) (Homo sapiens (Human), UniProt P13866); test: In vitro human SGLT1 inhibition assay (14C-AMG uptake); assay type: cell-based; design: key to SGLT1 (human SGLT1 IC50): ***: a value less than 0.01 μM; **: a value less than 0.1 μM; *: a value less than 1 μM; —: a value not measured or exceeding μM; settings: HEK293 cells expressing human HA-SGLT1, 14C-AMG uptake
# Human sodium/glucose co-transporter type 1 (SGLT1), sequence (P13866 whole entry): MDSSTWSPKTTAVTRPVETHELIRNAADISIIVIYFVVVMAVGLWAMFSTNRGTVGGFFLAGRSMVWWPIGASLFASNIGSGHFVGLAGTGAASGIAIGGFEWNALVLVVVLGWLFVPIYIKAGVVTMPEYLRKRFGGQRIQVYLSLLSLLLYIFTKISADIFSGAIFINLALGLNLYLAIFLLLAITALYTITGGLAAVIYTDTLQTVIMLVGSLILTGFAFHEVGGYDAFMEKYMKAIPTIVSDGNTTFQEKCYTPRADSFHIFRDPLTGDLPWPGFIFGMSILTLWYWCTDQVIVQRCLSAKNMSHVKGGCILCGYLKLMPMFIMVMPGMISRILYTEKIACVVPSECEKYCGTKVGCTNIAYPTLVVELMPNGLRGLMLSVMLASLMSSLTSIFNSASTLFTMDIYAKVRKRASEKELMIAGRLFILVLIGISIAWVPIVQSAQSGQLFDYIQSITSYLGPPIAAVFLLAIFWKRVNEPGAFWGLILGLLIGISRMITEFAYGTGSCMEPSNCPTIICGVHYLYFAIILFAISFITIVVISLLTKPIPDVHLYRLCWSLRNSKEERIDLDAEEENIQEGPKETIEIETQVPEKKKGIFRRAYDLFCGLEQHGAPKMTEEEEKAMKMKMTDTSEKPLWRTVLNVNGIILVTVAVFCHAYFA
# In short: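 HEK293 cells stably expressing human HA-tagged SGLT1 (30,000/well, overnight) were washed into Na+-containing uptake buffer (140 mM NaCl, HEPES/Tris, 1 mg/mL BSA, pH 7.3). Cells then received compound plus 100 nCi 14C-AMG for 1–2 h at 37 °C; after washing, AMG uptake was quantified by scintillation counting.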
# [2] = biological target: Human sodium/glucose co-transporter type 2 (SGLT2) (Homo sapiens (Human), UniProt P31639); test: In vitro human SGLT2 inhibition assay (14C-AMG uptake); assay type: cell-based; design: key to SGLT2 (human SGLT2 IC50): ***: a value less than 0.01 μM; **: a value less than 0.1 μM; *: a value less than 1 μM; —: a value not measured or exceeding μM; settings: HEK293 cells expressing human HA-SGLT2, 14C-AMG uptake
# Human sodium/glucose co-transporter type 2 (SGLT2), sequence (P31639 whole entry): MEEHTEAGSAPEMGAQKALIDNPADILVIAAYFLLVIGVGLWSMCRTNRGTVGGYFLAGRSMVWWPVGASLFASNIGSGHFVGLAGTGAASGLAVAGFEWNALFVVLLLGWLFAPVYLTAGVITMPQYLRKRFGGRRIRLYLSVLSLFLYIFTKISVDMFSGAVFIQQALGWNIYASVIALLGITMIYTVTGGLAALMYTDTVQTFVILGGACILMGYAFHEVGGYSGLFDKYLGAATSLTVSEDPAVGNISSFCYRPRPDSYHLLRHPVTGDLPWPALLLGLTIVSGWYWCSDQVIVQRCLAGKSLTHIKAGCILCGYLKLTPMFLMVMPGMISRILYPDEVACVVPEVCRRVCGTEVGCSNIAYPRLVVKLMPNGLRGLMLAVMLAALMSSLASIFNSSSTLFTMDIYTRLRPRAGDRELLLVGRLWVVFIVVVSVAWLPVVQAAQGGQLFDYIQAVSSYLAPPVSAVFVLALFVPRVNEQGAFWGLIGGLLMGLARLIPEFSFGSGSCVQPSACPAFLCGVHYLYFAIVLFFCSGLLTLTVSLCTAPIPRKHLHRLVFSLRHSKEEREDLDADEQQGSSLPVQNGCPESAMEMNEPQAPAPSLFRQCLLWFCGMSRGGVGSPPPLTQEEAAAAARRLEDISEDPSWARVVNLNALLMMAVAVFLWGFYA
# In short: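 HEK293 cells stably expressing HA-tagged human SGLT2, seeded overnight, washed into Na+-containing HEPES/Tris uptake buffer with 1 mg/mL BSA, pH 7.3. Compound added, then 14C-AMG (100 nCi); 1-2 h at 37 °C, 5% CO2. Washed cells counted by scintillation for 14C-AMG uptake.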
# [3] = test system: KKay mice; test: Glucose challenge in KKAy diabetic mice (glucose excursion); assay type: in vivo; settings: KKay mice on 45% high fat diet, 1.5 and 4.5 mg/kg once daily, day 22, glucose bolus 2 g/kg 15 hours after dosing
# Description: (§1) Twelve week-old male KKay mice were purchased from The Jackson Laboratory (Bar Harbor, Me.). They were switched to 45% high fat diet (HFD; diet D12451i, Research Diets) and housed individually for one week before study. The mice were randomized into the following groups by their HbA1c levels and body weights:
# (§2) Mice received either vehicle or Compound C once daily at […] for 36 days. Body weight and food consumption were monitored daily. On day 22, blood was collected before glucose challenge for baseline glucose. Mice were then given a bolus dose of glucose (2 g/kg, 10 mL/kg). Blood was collected at 30, 60 and 120 minutes after glucose challenge to estimate the glucose excursion. Blood glucose was analyzed by Cobas Integra 400 Autoanalyzer (Roche Diagnostics).
# [4] = test system: KKay mice; test: HbA1c in KKAy diabetic mice; assay type: in vivo; settings: 1.5 and 4.5 mg/kg once daily, day 26
# Description: as §1, §2
# On day 26 after dosing, blood was collected for HbA1c. HbA1c was measured using a meter manufactured by Bayer according to the protocol recommended by Bayer.
# [5] = test system: KKay mice; test: Postprandial tGLP-1 in KKAy diabetic mice; assay type: in vivo; settings: 4.5 mpk group, day 29, 60 minutes after glucose bolus 2 g/kg
# Description: as §1, §2
# On day 29, the mice again received a glucose bolus (2 g/kg, 10 mL/kg). Blood was collected at 60 minutes after glucose challenge and analyzed for tGLP-1. Plasma was prepared by centrifuging blood samples at 1000 rpm for 10 minutes at 4° C. tGPL-1 was analyzed by ELISA (Glucagon-Like Peptide-1 Total ELISA Kit, catalog #EZGLP1T-36K, Millipore, St. Charles, Mo.) according to the protocol recommended by Millipore.
IC50 [1],IC50 [2],SMILES,further results
< 10 nM,< 10 nM,"CS[C@H]1O[C@@H](c2ccc(C)c(Cc3ccc(OCCCNC(C)(C)CO)cc3)c2)[C@H](O)[C@@H](O)[C@@H]1O [(2S,3R,4R,5S,6R)-2-(3-(4-(3-((1-hydroxy-2-methylpropan-2-yl)amino)propoxy)benzyl)-4-methylphenyl)-6-(methylthio)tetrahydro-2H-pyran-3,4,5-triol]","glucose excursion after glucose challenge [3]: dose-dependent decrease in glucose excursion; HbA1c [4]: significant, dose-dependent reduction in HbA1c; postprandial tGLP-1 [5]: significant increase in postprandial tGLP-1"
< 10 nM,< 10 nM,"CS[C@H]1O[C@@H](c2ccc(C)c(Cc3ccc(CCCC(=O)NCCCN(C)CCCNC(=O)CCCc4ccc(Cc5cc([C@@H]6O[C@H](SC)[C@@H](O)[C@H](O)[C@H]6O)ccc5C)cc4)cc3)c2)[C@H](O)[C@@H](O)[C@@H]1O [(S,R,S,R,R)-N,N′-((methylazanediyl)bis(propane-3,1-diyl))bis(4-(4-(2-methyl-5-((2S,3R,4R,5S,6R)-3,4,5-trihydroxy-6-(methylthio)tetrahydro-2H-pyran-2-yl)benzyl)phenyl)butanamide)]",
< 10 nM,< 10 nM,"CS[C@H]1O[C@@H](c2ccc(C)c(Cc3ccc(CCCC(=O)NC(C)(C)C(=O)N4CCC(C)CC4)cc3)c2)[C@H](O)[C@@H](O)[C@@H]1O [N-(2-methyl-1-(4-methylpiperidin-1-yl)-1-oxopropan-2-yl)-4-(4-(2-methyl-5-((2S,3R,4R,5S,6R)-3,4,5-trihydroxy-6-(methylthio)tetrahydro-2H-pyran-2-yl)benzyl)phenyl)butanamide]",
< 10 nM,< 10 nM,"CS[C@H]1O[C@@H](c2ccc(C)c(Cc3ccc(CCCC(=O)NC(C)(C)C(=O)N4CCC(NC(=O)OC(C)(C)C)CC4)cc3)c2)[C@H](O)[C@@H](O)[C@@H]1O [tert-butyl (1-(2-methyl-2-(4-(4-(2-methyl-5-((2S,3R,4R,5S,6R)-3,4,5-trihydroxy-6-(methylthio)tetrahydro-2H-pyran-2-yl)benzyl)phenyl)butanamido)propanoyl)piperidin-4-yl)carbamate]",
< 10 nM,< 10 nM,"CS[C@H]1O[C@@H](c2ccc(C)c(Cc3ccc(CCCc4nnnn4CC(=O)N4CCN(C)CC4)cc3)c2)[C@H](O)[C@@H](O)[C@@H]1O [2-(5-(3-(4-(2-methyl-5-((2S,3R,4R,5S,6R)-3,4,5-trihydroxy-6-(methylthio)tetrahydro-2H-pyran-2-yl)benzyl)phenyl)propyl)-1H-tetrazol-1-yl)-1-(4-methylpiperazin-1-yl)ethanone]",
< 100 nM,< 10 nM,"CS[C@H]1O[C@@H](c2ccc(C)c(Cc3ccc(OCCCC(=O)N4CCN(C)CC4)cc3)c2)[C@H](O)[C@@H](O)[C@@H]1O [4-(4-(2-methyl-5-((2S,3R,4R,5S,6R)-3,4,5-trihydroxy-6-(methylthio)tetrahydro-2H-pyran-2-yl)benzyl)phenoxy)-1-(4-methylpiperazin-1-yl)butan-1-one]",
,,"COC(=O)CCCOc1ccc(Cc2cc([C@@H]3O[C@H](SC)[C@@H](O)[C@H](O)[C@H]3O)ccc2Cl)cc1 [methyl 4-(4-(2-chloro-5-((2S,3R,4R,5S,6R)-3,4,5-trihydroxy-6-(methylthio)tetrahydro-2H-pyran-2-yl)benzyl)phenoxy)butanoate]",SGLT1 (human SGLT1 IC50) [1]: —; SGLT2 (human SGLT2 IC50) [2]: —
< 10 nM,< 10 nM,"CS[C@H]1O[C@@H](c2ccc(C)c(Cc3ccc(OCCCC(=O)NC(C)(C)CO)cc3)c2)[C@H](O)[C@@H](O)[C@@H]1O [N-(1-hydroxy-2-methylpropan-2-yl)-4-(4-(2-methyl-5-((2S,3R,4R,5S,6R)-3,4,5-trihydroxy-6-(methylthio)tetrahydro-2H-pyran-2-yl)benzyl)phenoxy)butanamide]",
< 100 nM,< 10 nM,"CS[C@H]1O[C@@H](c2ccc(C)c(Cc3ccc(OCCCC(=O)N[C@@H](CC(N)=O)C(N)=O)cc3)c2)[C@H](O)[C@@H](O)[C@@H]1O [(S)-2-(4-(4-(2-methyl-5-((2S,3R,4R,5S,6R)-3,4,5-trihydroxy-6-(methylthio)tetrahydro-2H-pyran-2-yl)benzyl)phenoxy)butanamido)succinamide]",
